The target of experiment [1] is T1, ST6Gal1 (Homo sapiens, UniProt P15907).
T1 construct: Δ131, 3xFLAG
T1 sequence (P15907 132-406): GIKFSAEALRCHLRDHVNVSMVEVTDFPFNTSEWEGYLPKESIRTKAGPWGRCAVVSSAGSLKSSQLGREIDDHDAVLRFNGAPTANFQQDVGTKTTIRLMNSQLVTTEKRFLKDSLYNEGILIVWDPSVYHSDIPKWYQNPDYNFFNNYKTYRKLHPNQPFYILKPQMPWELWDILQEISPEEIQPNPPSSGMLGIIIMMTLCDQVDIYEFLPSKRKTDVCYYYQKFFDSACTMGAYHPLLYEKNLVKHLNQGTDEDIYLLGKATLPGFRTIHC
The experiment is described as follows: SPR (CM5 chip, immobilized purified ST6Gal1). The experiment is classed as binding. An excerpt:
SPR (CM5 chip, immobilized purified ST6Gal1) on ST6Gal1 | Pull-down and SPR analyses confirmed that Y-320 binds to ST6Gal1 with high affinity

Experiment [2] deals with T2, ST3Gal1 (Sus scrofa, UniProt Q02745).
T2 construct: Δ45, N-terminal 6xHis-MBP fusion
T2 sequence (Q02745 46-343): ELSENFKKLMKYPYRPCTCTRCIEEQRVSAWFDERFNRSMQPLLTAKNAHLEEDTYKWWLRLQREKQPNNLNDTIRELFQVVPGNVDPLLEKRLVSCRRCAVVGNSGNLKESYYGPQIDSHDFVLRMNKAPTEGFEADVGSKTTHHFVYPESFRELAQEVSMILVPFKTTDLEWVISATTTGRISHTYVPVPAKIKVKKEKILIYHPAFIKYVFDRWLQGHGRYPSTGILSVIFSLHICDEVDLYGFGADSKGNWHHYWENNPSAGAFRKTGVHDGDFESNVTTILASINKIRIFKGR
The experiment is described as follows: SPR (CM5 chip, immobilized purified ST3Gal1). It counts as binding.

This is an account of results in paper PMC12550625, “A Potent Oral Sialylation Inhibitor Augments the Immunotherapy in Pancreatic Ductal Adenocarcinoma” (ACS Central Science, 2025).

What is called pKd is the Kd on a negative log10 scale, so that one unit is a factor of ten. Lower therefore signals a large Kd.

pKd: −log10 of the molar value.

For `Cc1c(C(=O)Nc2ccc(N3CCC(N4CCOCC4)CC3)c(C#N)c2)cnn1-c1ccc(Cl)cc1` [Y-320], the negative logarithm of the Kd (pKd) in experiment [1] was 6.05; in experiment [2], 6.15.
